Consider two compounds from US20080213249A1, “Use of Retro-Aldol Reaction to Generate Reactive Vinyl Ketone for Attachment to Antibody Molecules by Michael Addition Reaction for Use in Immunostaining and Immunotargeting” (THE SCRIPPS RESEARCH INSITUTE, priority 2006, published 2008).

Each structure is given as a SMILES string.

Assay [1] relates to antibody 38C2. The experiment in a line: Inactivation of the catalytic (aldolase) activity of antibody 38C2, fluorescence assay with methadol as substrate. Particulars: preliminary studies, unpublished results. The class given is biochemical, mouse. On the procedure: To assess the potential of 2a, 3a, 2c, and 3c as programming agents, these compounds were separately mixed with antibody 38C2 at a ratio of 2:1, and the mixtures were incubated at 37° C. for 2 h. A fluorescence assay, based on using methadol as the substrate, was used to assess time-dependent inactivation of the catalytic activity of the antibody (14). Inactivation of aldolase activity should be indicative of modification of the catalytic lysine residue and, thus, chemical programming of the antibody. In the absence of the programming agents, 38C2 rapidly catalyzed the retro-aldol reaction of methadol to produce the fluorescent product 6-methoxy-2-naphthaldehyde. […] (The cpAb 38C2 using targeting agents 2a or 3a were named as 38C2-2b and 38C2-3b, respectively, based on the fact that compounds 2b and 3b were the expected ligands that conjugated with 38C2. Similarly, the analogous chemically programmed 38C2 Fab (or cp38C2Fab) construct obtained from 3a was named as 38C2Fab-3b.) These observations clearly supported the assumption that vinyl ketones, 2b and 3b, produced in situ from their acetone adducts, reacted with the active site of the antibody and also reinforced the previously described construct formation from the analogous diketone compounds 2c and 3c.

For assay [2], the system named is HIV primary isolates and laboratory-adapted strains. Particulars: cited from earlier work.

With `C=CC(C)=O` [methylvinyl ketone], in assay [1], the “inactivation of the antibody” value is “rapidly inactivated the antibody”. On to `C=C(C)[C@@H]1CC[C@]2(C(=O)NCCCCCCCC(=O)N[C@@H](CC(C)C)[C@H](O)CC(=O)O)CC[C@]3(C)[C@H](CC[C@@H]4[C@@]5(C)CC[C@H](O)C(C)(C)[C@@H]5CC[C@]43C)[C@@H]12` [IC9564], for which the anti-HIV activity result in assay [2] is “can inhibit both HIV primary isolates and laboratory-adapted strains”.
